Experimental data as given in ChEMBL document CHEMBL4393686, “InCl3 mediated heteroarylation of indoles and their derivatization via CH activation strategy: Discovery of 2-(1H-indol-3-yl)-quinoxaline derivatives as a new class of PDE4B selective inhibitors for arthritis and/or multiple sclerosis” (Eur J Med Chem, 2019).
Activity calls are given as the source filed them. No cut-off for these calls is given here.

How the values were obtained:
[1] = target: 3',5'-cyclic-AMP phosphodiesterase 4B (Homo sapiens, UniProt Q07343); assay: Inhibition of recombinant His-tagged human PDE4B expressed in Sf9 cells using cAMP as substrate preincubated with enzyme for 15 mins followed by substrate addition and incubated for 1 hr by PDELight HTS cAMP phosphodiesterase Kit based luminometry
Chain of 3',5'-cyclic-AMP phosphodiesterase 4B (Q07343 whole entry): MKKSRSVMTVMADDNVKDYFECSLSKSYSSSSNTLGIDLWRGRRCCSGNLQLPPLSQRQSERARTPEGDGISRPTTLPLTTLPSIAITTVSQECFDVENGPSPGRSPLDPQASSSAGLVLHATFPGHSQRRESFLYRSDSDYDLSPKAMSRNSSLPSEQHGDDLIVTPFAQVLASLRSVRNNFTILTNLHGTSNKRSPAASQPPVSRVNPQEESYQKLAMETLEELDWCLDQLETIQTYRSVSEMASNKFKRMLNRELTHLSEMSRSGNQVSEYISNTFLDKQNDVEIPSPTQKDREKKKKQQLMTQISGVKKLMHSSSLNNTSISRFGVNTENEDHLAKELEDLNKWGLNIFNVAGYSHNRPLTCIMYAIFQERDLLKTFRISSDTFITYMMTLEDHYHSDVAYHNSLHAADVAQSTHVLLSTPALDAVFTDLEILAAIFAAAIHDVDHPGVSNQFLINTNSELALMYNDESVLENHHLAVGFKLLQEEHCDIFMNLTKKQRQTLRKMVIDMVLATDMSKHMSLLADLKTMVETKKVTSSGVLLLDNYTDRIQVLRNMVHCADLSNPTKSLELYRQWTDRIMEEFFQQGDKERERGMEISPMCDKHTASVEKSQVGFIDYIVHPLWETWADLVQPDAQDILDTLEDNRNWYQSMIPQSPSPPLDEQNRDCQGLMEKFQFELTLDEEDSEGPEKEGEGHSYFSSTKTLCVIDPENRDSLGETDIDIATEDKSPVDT

[2] = target: 3',5'-cyclic-AMP phosphodiesterase 4D (Homo sapiens, UniProt Q08499); assay: Inhibition of PDE4D2 (unknown origin) using cAMP as substrate preincubated with enzyme for 15 mins followed by substrate addition and incubated for 1 hr by PDELight HTS cAMP phosphodiesterase Kit based luminometry
Chain of 3',5'-cyclic-AMP phosphodiesterase 4D (Q08499 whole entry): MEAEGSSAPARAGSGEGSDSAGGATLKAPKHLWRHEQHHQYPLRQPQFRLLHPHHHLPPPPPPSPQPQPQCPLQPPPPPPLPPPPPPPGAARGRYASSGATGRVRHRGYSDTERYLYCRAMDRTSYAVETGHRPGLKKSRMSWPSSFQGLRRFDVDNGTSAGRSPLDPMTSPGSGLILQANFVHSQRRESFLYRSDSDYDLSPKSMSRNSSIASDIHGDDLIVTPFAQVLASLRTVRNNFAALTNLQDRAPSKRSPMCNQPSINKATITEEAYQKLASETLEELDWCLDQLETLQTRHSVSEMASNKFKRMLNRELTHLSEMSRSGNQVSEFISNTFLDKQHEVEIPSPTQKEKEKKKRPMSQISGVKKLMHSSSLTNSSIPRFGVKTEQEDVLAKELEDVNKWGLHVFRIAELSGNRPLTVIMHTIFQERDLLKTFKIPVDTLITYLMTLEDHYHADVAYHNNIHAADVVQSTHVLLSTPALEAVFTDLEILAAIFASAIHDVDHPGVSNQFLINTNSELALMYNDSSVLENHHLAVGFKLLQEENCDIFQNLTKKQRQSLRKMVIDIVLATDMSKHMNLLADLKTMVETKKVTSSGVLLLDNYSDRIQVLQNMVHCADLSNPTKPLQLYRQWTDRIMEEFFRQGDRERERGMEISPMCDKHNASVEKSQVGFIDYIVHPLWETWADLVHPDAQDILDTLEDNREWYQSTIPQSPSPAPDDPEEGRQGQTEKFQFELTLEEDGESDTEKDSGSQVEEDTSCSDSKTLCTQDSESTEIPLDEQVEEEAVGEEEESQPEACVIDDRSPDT

PDE4C = PDE4C (Homo sapiens, UniProt Q08493); assay: Inhibition of PDE4C (unknown origin) at 100 uM using cAMP as substrate preincubated with enzyme for 15 mins followed by substrate addition and incubated for 1 hr by PDELight HTS cAMP phosphodiesterase Kit based luminometry relative to control; conditions: probe cAMP
Chain of PDE4C (Q08493 whole entry): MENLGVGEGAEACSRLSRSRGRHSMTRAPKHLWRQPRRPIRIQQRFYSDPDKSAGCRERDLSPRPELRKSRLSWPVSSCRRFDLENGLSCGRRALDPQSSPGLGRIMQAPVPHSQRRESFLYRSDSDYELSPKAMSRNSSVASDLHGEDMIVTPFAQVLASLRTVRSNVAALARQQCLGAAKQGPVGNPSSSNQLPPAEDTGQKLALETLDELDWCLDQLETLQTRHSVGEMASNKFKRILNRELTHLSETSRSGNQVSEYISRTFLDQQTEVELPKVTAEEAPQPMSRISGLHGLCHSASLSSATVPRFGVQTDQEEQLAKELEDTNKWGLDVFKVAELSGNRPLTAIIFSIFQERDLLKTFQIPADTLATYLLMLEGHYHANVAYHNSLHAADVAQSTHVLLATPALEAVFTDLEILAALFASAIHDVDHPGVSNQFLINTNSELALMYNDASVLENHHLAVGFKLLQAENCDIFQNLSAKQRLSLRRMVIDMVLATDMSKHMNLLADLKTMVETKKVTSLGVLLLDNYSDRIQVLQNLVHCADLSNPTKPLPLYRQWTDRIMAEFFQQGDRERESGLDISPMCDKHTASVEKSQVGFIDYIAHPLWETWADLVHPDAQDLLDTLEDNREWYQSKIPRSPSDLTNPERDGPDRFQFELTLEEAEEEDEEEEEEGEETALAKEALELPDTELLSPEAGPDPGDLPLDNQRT

Homo sapiens = species: Homo sapiens; assay: Selectivity for recombinant His-tagged human PDE4B over PDE4C (unknown origin)
[3] = target: Dual specificity calcium/calmodulin-dependent 3',5'-cyclic nucleotide phosphodiesterase 1A (Homo sapiens) (UniProt P54750); assay: Inhibition of recombinant N-terminal GST-tagged full-length human PDE1A1 expressed in Sf9 cells using FAM-cAMP as substrate at 10 uM incubated for 60 mins by fluorescence plate reader analysis
Chain of Dual specificity calcium/calmodulin-dependent 3',5'-cyclic nucleotide phosphodiesterase 1A (Homo sapiens) (P54750 whole entry): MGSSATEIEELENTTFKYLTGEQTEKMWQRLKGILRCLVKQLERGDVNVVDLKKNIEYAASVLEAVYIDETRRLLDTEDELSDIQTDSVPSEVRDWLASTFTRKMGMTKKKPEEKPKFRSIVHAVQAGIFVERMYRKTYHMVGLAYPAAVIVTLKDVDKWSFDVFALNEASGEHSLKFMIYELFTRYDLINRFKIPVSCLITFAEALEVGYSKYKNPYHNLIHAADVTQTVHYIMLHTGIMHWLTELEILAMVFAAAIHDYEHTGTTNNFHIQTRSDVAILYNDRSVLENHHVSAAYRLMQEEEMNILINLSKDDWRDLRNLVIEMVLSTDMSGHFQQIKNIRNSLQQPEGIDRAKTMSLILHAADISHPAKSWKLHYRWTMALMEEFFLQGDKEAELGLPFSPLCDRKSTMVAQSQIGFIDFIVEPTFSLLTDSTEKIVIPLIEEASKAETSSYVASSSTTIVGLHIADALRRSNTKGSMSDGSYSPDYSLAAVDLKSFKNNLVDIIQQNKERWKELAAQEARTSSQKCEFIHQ

[4] = target: cGMP-inhibited 3',5'-cyclic phosphodiesterase 3A (Homo sapiens) (UniProt Q14432); assay: Inhibition of recombinant PDE3A (unknown origin) using FAM-cAMP as substrate at 10 uM incubated for 60 mins by fluorescence plate reader analysis
[5] = target: cGMP-inhibited 3',5'-cyclic phosphodiesterase 3B (Homo sapiens) (UniProt Q13370); assay: Inhibition of recombinant N-terminal GST-tagged human PDE3B (592-end aa) expressed in Sf9 cells using FAM-cAMP as substrate at 10 uM incubated for 60 mins by fluorescence plate reader analysis
[6] = Inhibition of recombinant N-terminal GST-tagged full length human PDE4A1A expressed in Sf9 cells using cAMP as substrate at 10 uM incubated for 60 mins by fluorescence plate reader analysis
[7] = target: cGMP-specific 3',5'-cyclic phosphodiesterase (Homo sapiens) (UniProt O76074); assay: Inhibition of recombinant N-terminal GST-tagged full length human PDE5A1 expressed in Sf9 cells using FAM-cGMP as substrate at 10 uM incubated for 60 mins by fluorescence plate reader analysis
[8] = target: 3',5'-cyclic-AMP phosphodiesterase 7B (Homo sapiens) (UniProt Q9NP56); assay: Inhibition of recombinant N-terminal GST tagged and C-terminal His-tagged human PDE7B (109-ens aa) expressed in Sf9 cells using FAM-cAMP as substrate at 10 uM incubated for 60 mins by fluorescence plate reader analysis
Chain of 3',5'-cyclic-AMP phosphodiesterase 7B (Homo sapiens) (Q9NP56 whole entry): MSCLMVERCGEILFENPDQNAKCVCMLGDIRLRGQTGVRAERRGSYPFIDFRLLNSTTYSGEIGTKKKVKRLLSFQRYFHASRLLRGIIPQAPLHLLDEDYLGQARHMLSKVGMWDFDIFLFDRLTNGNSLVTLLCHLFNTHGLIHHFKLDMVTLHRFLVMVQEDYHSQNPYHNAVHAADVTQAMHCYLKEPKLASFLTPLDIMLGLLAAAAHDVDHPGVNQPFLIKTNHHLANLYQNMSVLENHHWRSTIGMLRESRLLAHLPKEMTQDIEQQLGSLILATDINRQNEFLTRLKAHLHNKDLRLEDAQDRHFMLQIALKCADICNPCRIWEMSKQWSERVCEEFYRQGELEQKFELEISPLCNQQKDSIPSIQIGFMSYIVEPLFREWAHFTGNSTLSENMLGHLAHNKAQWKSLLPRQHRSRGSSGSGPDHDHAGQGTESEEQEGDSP

[9] = target: High affinity cAMP-specific and IBMX-insensitive 3',5'-cyclic phosphodiesterase 8A (Homo sapiens) (UniProt O60658); assay: Inhibition of recombinant N-terminal GST-tagged full length human PDE8A1 expressed in Sf9 cells using FAM-cAMP as substrate at 10 uM incubated for 60 mins by fluorescence plate reader analysis
Chain of High affinity cAMP-specific and IBMX-insensitive 3',5'-cyclic phosphodiesterase 8A (Homo sapiens) (O60658 whole entry, the tested form may be a part): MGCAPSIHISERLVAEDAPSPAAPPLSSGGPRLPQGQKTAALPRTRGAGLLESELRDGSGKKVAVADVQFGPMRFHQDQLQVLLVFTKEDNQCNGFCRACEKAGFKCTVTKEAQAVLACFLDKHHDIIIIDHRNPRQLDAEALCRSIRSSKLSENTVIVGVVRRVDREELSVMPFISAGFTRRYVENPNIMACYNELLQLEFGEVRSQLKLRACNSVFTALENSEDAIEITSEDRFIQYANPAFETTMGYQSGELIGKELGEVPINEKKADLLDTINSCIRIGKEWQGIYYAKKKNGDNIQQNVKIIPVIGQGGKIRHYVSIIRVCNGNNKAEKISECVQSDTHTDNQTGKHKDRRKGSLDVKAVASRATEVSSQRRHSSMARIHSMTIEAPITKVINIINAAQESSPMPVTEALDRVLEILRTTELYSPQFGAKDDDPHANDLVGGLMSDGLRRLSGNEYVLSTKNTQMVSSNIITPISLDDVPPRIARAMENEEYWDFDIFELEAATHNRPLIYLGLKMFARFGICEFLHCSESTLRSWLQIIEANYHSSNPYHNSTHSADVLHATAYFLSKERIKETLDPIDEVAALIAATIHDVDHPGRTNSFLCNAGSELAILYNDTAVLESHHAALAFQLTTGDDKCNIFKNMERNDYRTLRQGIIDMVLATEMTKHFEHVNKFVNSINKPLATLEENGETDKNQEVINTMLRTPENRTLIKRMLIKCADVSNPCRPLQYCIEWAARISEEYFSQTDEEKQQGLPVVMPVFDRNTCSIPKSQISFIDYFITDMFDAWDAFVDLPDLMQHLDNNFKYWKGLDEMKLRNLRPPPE

[10] = target: cAMP and cAMP-inhibited cGMP 3',5'-cyclic phosphodiesterase 10A (Homo sapiens) (UniProt Q9Y233); assay: Inhibition of recombinant -N-terminal GST-tagged human PDE10A1 (aa 2-789) expressed in Sf9 cells using FAM-cAMP as substrate at 10 uM incubated for 60 mins by fluorescence plate reader analysis
[11] = target: Dual 3',5'-cyclic-AMP and -GMP phosphodiesterase 11A (Homo sapiens) (UniProt Q9HCR9); assay: Inhibition of recombinant N-terminal GST-tagged full length human PDE11A4 expressed in Sf9 cells using FAM-cAMP as substrate at 10 uM incubated for 60 mins by fluorescence plate reader analysis
Chain of Dual 3',5'-cyclic-AMP and -GMP phosphodiesterase 11A (Homo sapiens) (Q9HCR9 whole entry, looked up): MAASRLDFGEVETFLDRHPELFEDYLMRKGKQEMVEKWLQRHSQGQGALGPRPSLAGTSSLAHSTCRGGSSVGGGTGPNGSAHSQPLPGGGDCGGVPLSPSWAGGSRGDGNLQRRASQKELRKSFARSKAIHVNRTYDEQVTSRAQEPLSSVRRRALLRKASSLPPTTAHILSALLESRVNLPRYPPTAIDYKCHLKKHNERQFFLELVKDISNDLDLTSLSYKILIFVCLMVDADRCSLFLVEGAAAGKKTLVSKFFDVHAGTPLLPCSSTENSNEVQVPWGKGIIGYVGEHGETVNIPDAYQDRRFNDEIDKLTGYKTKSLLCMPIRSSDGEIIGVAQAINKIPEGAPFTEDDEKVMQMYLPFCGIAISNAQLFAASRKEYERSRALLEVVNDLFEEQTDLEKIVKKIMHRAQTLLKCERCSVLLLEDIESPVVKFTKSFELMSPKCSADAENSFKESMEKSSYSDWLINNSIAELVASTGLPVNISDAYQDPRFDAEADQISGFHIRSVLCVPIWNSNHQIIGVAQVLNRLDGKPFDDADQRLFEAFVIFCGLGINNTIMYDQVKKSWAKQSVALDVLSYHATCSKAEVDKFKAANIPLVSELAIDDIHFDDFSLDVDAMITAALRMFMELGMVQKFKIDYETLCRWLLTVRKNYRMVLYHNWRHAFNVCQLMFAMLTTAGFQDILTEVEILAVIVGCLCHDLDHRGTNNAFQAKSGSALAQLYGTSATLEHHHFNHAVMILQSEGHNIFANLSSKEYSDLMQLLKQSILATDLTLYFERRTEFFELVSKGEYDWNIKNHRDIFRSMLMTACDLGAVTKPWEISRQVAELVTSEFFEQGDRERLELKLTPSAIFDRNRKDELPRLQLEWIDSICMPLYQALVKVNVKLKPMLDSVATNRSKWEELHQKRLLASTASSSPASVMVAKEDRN

[12] = Intrinsic clearance in rat liver microsomes at 5 uM by LC-MS/MS analysis; format: ADME, Microsome; conditions: read-out: CLH
[13] = Cmax in BALB/c mouse at 10 mg/kg, iv measured for 24 hrs post dose by LC-MS/MS analysis; format: ADME, organism-based; set-up: dose 10 mg/kg, route intravenous; conditions: in vivo
[14] = Tmax in BALB/c mouse at 10 mg/kg, iv measured for 24 hrs post dose by LC-MS/MS analysis; format: ADME, organism-based; conditions: in vivo
Danio rerio [15] = assay: Anti-sclerotic activity in MOG/CFA-induced zebra fish EAE model assessed as reduction in lesion score at 3 to 30 mg/kg, ip measured for 7 days; format: functional, organism-based
Rattus norvegicus [16] = assay: Analgesic activity in complete Freund's adjuvant-induced Wistar rat arthritis model assessed as increase in reaction time at 30 mg/kg, ip administered from 11th day 20th day with last dose administered 30 mins prior to test by hot-plate test; format: functional, organism-based
Rattus norvegicus [17] = assay: Antiarthritic activity in complete Freund's adjuvant-induced Wistar rat arthritis model assessed as reduction in pannus formation at 30 mg/kg, ip administered from 11th day to 20th day by H&E staining based microscopic analysis; format: functional, organism-based
[18] = Cardiotoxicity in zebrafish embryos assessed as artio-ventricular ratio at 1 to 100 uM; format: toxicity, Danio rerio
Rattus norvegicus [19] = assay: Antiinflammatory activity in complete Freund's adjuvant-induced Wistar rat arthritis model assessed as reduction in TNFalpha expression in serum at 30 mg/kg, ip administered from 11th day to 20th day by ELISA; format: functional, organism-based
Rattus norvegicus [20] = assay: Antiinflammatory activity in complete Freund's adjuvant-induced Wistar rat arthritis model assessed as reduction in IL6 expression in serum at 30 mg/kg, ip administered from 11th day to 20th day by ELISA; format: functional, organism-based
[21] = Toxicity in zebrafish embryos assessed as teratogenicity score at 1 to 100 uM incubated for 5 dpf; set-up: species or system Danio rerio; conditions: in vivo
[22] = Hepatotoxicity in zebrafish embryos assessed as liver degeneration at 1 to 100 uM incubated for 7 dpf; format: toxicity, Danio rerio; conditions: in vivo
[23] = Toxicity in zebrafish embryo assessed as change in body shape at 1 to 100 uM; set-up: species or system Danio rerio; conditions: in vivo
[24] = Toxicity in zebrafish embryo assessed as effect in tail formation at 1 to 100 uM; set-up: species or system Danio rerio; conditions: in vivo
[25] = Toxicity in zebrafish embryo assessed as effect in brain formation at 1 to 100 uM; format: tissue-based, Danio rerio; conditions: in vivo
[26] = Toxicity in zebrafish embryo assessed as effect in lower jaw formation at 1 to 100 uM; set-up: species or system Danio rerio; conditions: in vivo
[27] = Toxicity in zebrafish embryo assessed as effect in swim bladder formation at 1 to 100 uM; set-up: species or system Danio rerio; conditions: in vivo
[28] = Toxicity in zebrafish embryo assessed as effect in liver formation at 1 to 100 uM; set-up: species or system Danio rerio; conditions: in vivo
Danio rerio [29] = assay: Anti-sclerotic activity in MOG/CFA-induced zebra fish EAE model assessed as prevention of disease progression at 3 to 30 mg/kg, ip measured for 7 days; format: functional, organism-based
Rattus norvegicus [30] = assay: Antiinflammatory activity in complete Freund's adjuvant-induced Wistar rat arthritis model assessed as reduction in TNFalpha mRNA expression at 30 mg/kg, ip administered from 11th day to 20th day by qPCR analysis; format: functional, organism-based

Which IC50 [1] does the source give for `C=CCn1cc(-c2nc3ccccc3nc2Cl)c2cc(OC)ccc21` here?
Its IC50 is 0.39 µM.

And the IC50 [2]?
Its IC50 is 10.7 µM.

What about the inhibition at 1 h, 100 µM (PDE4C) of the same compound?
Its inhibition at 1 h, 100 µM is 20 to 30%.

And the Selectivity ratio (Homo sapiens)?
Its Selectivity ratio is over 250.

What about the inhibition [3] of the same compound?
The inhibition was 12%.

What about the inhibition [4] of the same compound?
The inhibition was 1%.

What about the inhibition [5] of the same compound?
Its inhibition is 1%.

What about the inhibition [6] of the same compound?
The inhibition was 40%.

What about the inhibition [7] of the same compound?
The inhibition was 2%.

What about the inhibition [8] of the same compound?
Its inhibition is 2%.

What about the inhibition [9] of the same compound?
Its inhibition is 3%.

What about the inhibition [10] of the same compound?
Its inhibition is 13%.

What about the inhibition [11] of the same compound?
The inhibition was 7%.

And the microsomal CLint at 5 µM [12]?
The microsomal CLint at 5 µM was 52.8 µL/min/mg.

And the Cmax [13]?
Its Cmax is 2850 ng/mL.

What about the Tmax [14] of the same compound?
Its Tmax is 4.8 min.

And the inhibition (Danio rerio [15])?
Its inhibition is “inactive”.

What about the Activity (Rattus norvegicus [16]) of the same compound?
Its Activity is “Active”.

And the inhibition (Rattus norvegicus [17])?
The inhibition was “Active”.

And the Activity [18]?
The Activity was “Non-Toxic”.

And the inhibition (Rattus norvegicus [19])?
Its inhibition is “Active”.

And the inhibition (Rattus norvegicus [20])?
Its inhibition is “Active”.

What about the Activity [21] of the same compound?
Its Activity is “Non-Toxic”.

And the Activity [22]?
The Activity was “Non-Toxic”.

And the Activity [23]?
The Activity was “Non-Toxic”.

And the Activity [24]?
Its Activity is “Non-Toxic”.

What about the Activity [25] of the same compound?
The Activity was “Non-Toxic”.

What about the Activity [26] of the same compound?
The Activity was “Toxic”.

And the Activity [27]?
Its Activity is “Non-Toxic”.

And the Activity [28]?
The Activity was “Non-Toxic”.

And the Activity (Danio rerio [29])?
Its Activity is “Active”.

And the inhibition (Rattus norvegicus [30])?
The inhibition was “Active”.
